Data reported in US11779014B2, “Adjuvants” (SYNGENTA PARTICIPATIONS AG, priority 2017, dated 2023).
Each block holds one molecule with its values, some of them ahead of it.

Key:
[1] = test system: Chenopodium album (CHEAL); assay: Glasshouse adjuvancy test for nicosulfuron on CHEAL; format: in vivo
Procedure: (§1) The biological efficacies of blends of an oleyl 20 ethoxylate uncapped surfactant with an oleyl 20 ethoxylate surfactant with an n-hexyl ether cap as adjuvants for the herbicide nicosulfuron were tested in a glasshouse against three weed species sown into standard soil in pots and cultivated under controlled conditions in a glasshouse (24/18° C. day/night; 16 hours light; 65% humidity). Nicosulfuron was added to the spray tank as a standard WG (water dispersible granule) formulation. The plants were sprayed with nicosulfuron at rates of 15 or 60 grams of pesticide per hectare using a laboratory track sprayer which delivered the aqueous spray composition at a rate of 200 litres per hectare, using a flat fan nozzle (Teejet 11002VS) at 2 bar. The adjuvants were added to the spray solution at a total rate of 0.1 or 0.2% w/v in all cases and at extra lower rates for the oleyl 20EO alone and its 1:1 blend with the oleyl 20EO n-hexyl ether to show the dose response to these adjuvants. All spray solutions also contained 10% w/w of iso-propanol. The weed species and their BBCH growth stage at spraying were Chenopodium album (CHEAL; growth stage 15), Digitaria sanguinalis (DIGSA; growth stage 14), and Commelina benghalensis (COMBE; growth stage 14). Each spray test was replicated three times. The test plants were then grown in a glasshouse under controlled conditions (24/18° C. day/night; 16 hours light; 65% humidity) and watered twice a day. The efficacy of the herbicide was assessed visually and expressed as a percentage of the leaf area killed. Samples were assessed at a time period of 21 days following application. The following tables (3-8) show the effect of blends of the two surfactants at a total concentration of 0.2 and 0.1%. In each case the blends were 1:0, 3:1, 1:1, 1:3 and 0:1 w/w of oleyl 20EO:oleyl 20 EO n-hexyl ether.
The biological efficacies of blends of oleyl 20 ethoxylate and oleyl 20EO ethoxylate with a benzoate cap as adjuvants for the herbicide nicosulfuron were tested in a glasshouse using the same method as for ‘Example 1’ but against just two weed species and with just 0.2% w/v total adjuvant concentration. The weed species and their BBCH growth stage at spraying HI were Chenopodium album (CHEAL; growth stage 13-15) and Digitaria sanguinalis (DIGSA; growth stage 14-22).
The biological efficacies of 1:1 blends of an oleyl 20 ethoxylate uncapped surfactant with oleyl 20E ethoxylate surfactants with hexanoyl, n-octanoyl or 2-ethyl hexanoyl ester caps as adjuvants for the herbicide nicosulfuron were tested in a glasshouse using the same method as for ‘Example 1’ but against just one weed species and at 0.2% w/v tital adjuvant concentration. The weed species and its BBCH growth stage at spraying was Chenopodium album (CHEAL; growth stage 15).

[2] = Cloud point measurement (absorbance at 500 nm as a function of temperature); format: physicochemical
Procedure: Consistent with the standard method for measuring the cloud point of surfactants, the cloud point of each of the above blends was measured at a total concentration of 1% w/w in water using a Perkin Elmer spectrophotometer fitted with a PTP6 temperature controller. The absorbance of the solution at 500 nm wavelength was determined as a function of temperature. The cloud point was recorded as the onset of a rapid increase in absorbance as the solution began to cloud.
Cloud point—the measurements relied on the same method as for ‘Example 1’
Cloud points—were measured using the same method as in Example 1.
(§2) This example provides de-gelling, cloud point and adjuvancy data for dodecyl 23 ethoxylate with n-hexyl cap and hexadecyl 20 ethoxylate with n-hexyl cap Cloud points were measured as described in example 1 for 1% aqueous solutions of the capped and uncapped surfactants both individually and as blends (see Table 30). Degelling temperatures were also measured as outlined in example 1 for 25, 30, 35 and 40% aqueous solutions of the capped and uncapped surfactants both individually and as blends (see Table 31).
(§3) This example provides de-gelling, cloud point and adjuvancy data for oleyl 20 ethoxylate with n-butyl, n-pentyl or benzyl ether caps end capped oleyl 20 ethoxylate. Cloud points were measured as described in example 1 for 1% aqueous solutions of the capped and uncapped surfactants both individually and as blends. Degelling temperatures were also measured as outlined in example 1 for 25, 30, 35 and 40% aqueous solutions o of the capped and uncapped surfactants both individually and as blends.

[3] = De-gelling temperature of aqueous surfactant blends by low shear rheology (Bohlin Gemini rheometer, storage modulus vs temperature); format: physicochemical; conditions: for Degelling temperature: Table 18
Procedure: The temperatures at which blends of capped and uncapped surfactants de-gel were determined by standard low shear rheology with a Bohlin™ Gemini rheometer. The storage modulus (G′) at 1 Hz was determined at a strain of 0.001-0.002 in a standard C14 cup and bob geometry over a temperature range of 5-70° C., the exact range depending on the de-gelling point of the sample. Plots of storage modulus versus temperature were constructed and the de-gelling temperature was taken to be the point at which the modulus begins to fall rapidly from its high value in the gelled state (typically ca. 10^5 Pa) down to the final value in the de-gelled state (less than 10 Pa). Blends of surfactants were prepared at from 25 to 40% w/w total surfactant concentration in water. Samples were left in an oven at 55° C. for several days to ensure that the mixtures were homogeneous. Samples were placed in the C14 cup and the samples were de-gelled by raising the temperature in the rheometer, the bob was then inserted and the sample was then cooled at 1° C./min, whilst the storage modulus was regularly recorded during the cooling. Once the final temperature had been reached (i.e. when the sample had gelled), the temperature was then increased again and the modulus again recorded. The de-gelling temperature was determined from the increasing temperature cycle.
Degelling temperatures—the measurements relied on the same method as for ‘Example 1’ but just at 30% w/w total surfactant concentration.
De-gelling temperatures were measured using the same method as in Example 1.
as §2, §3

[4] = test system: Commelina benghalensis (COMBE); assay: Glasshouse adjuvancy test for nicosulfuron on COMBE; format: in vivo; conditions: 21 DAA
Procedure: as §1

[5] = nicosulfuron 15 g ai/ha, 0.1% total surfactant concentration, 21 days, Table 6
[6] = nicosulfuron 15 g ai/ha, 0.2% total surfactant concentration, 21 days, Table 5
[7] = nicosulfuron 60 g ai/ha, 0.1% total surfactant concentration, 21 days, Table 6
[8] = nicosulfuron 60 g ai/ha, 0.2% total surfactant concentration, 21 days, Table 5
[9] = total concentration 1% w/w in water, Table 2
[10] = total surfactant concentration 25% w/w in water, Table 1
[11] = total surfactant concentration 30% w/w in water, Table 1
[12] = total surfactant concentration 35% w/w in water, Table 1
[13] = total surfactant concentration 40% w/w in water, Table 1
[14] = nicosulfuron 15 g ai/ha, 0.1% surfactant total concentration
[15] = nicosulfuron 15 g ai/ha, 0.2% surfactant total concentration
[16] = nicosulfuron 60 g ai/ha, 0.1% surfactant total concentration
[17] = nicosulfuron 60 g ai/ha, 0.2% surfactant total concentration

- Cloud point ([2]; 1% aqueous solutions, Table 34): >90.0 °C
- Cloud point ([2]; 1%, Table 15): >95.0 °C
- Cloud point ([2]; 1%, Table 20): >95.0 °C
- Cloud point [2, 9]: >90 °C
- De-gelling temperature ([3]; 30% w/w total surfactant concentration, Table 15): 42.4 °C
- De-gelling temperature ([3]; 40% w/w, Table 19): 66.3 °C
- De-gelling temperature [3, 10]: 26.9 °C
- Degelling temperature ([3]; total surfactant concentration 25% w/w): 26.9 °C
- De-gelling temperature ([3]; total surfactant concentration 25% w/w, Table 35): 23.3 °C
- De-gelling temperature [3, 11]: 45.2 °C
- Degelling temperature ([3]; total surfactant concentration 30% w/w): 45.2 °C
- De-gelling temperature ([3]; total surfactant concentration 30% w/w, Table 35): 40.9 °C
- De-gelling temperature [3, 12]: 51.3 °C
- Degelling temperature ([3]; total surfactant concentration 35% w/w): 51.3 °C
- De-gelling temperature ([3]; total surfactant concentration 35% w/w, Table 35): 56.7 °C
- De-gelling temperature [3, 13]: 70.6 °C
- Degelling temperature ([3]; total surfactant concentration 40% w/w): 70.6 °C
- De-gelling temperature ([3]; total surfactant concentration 40% w/w, Table 35): 63.1 °C
Molecule: CCCCCCCC/C=C\CCCCCCCCOCCOCCOCCOCCOCCOCCOCCOCCOCCOCCOCCOCCOCCOCCOCCOCCOCCOCCOCCOCCO [Oleyl 20EO, oleyl 20 ethoxylate]
- Mean control ([1]; dose response, nicosulfuron 15 g ai/ha, adjuvant 0.05%): 81.7%
- Mean control ([1]; dose response, nicosulfuron 15 g ai/ha, adjuvant 0.1%): 86.7%
- Mean control ([1]; dose response, nicosulfuron 15 g ai/ha, adjuvant 0.2%): 83.3%
- Mean control ([1]; dose response, nicosulfuron 60 g ai/ha, adjuvant 0.05%): 83.3%
- Mean control ([1]; dose response, nicosulfuron 60 g ai/ha, adjuvant 0.1%): 80.0%
- Mean control ([1]; dose response, nicosulfuron 60 g ai/ha, adjuvant 0.2%): 80.0%
- Mean control [1, 5]: 86.7%
- Mean control [1, 6]: 83.3%
- Mean control ([1]; nicosulfuron 15 g ai/ha, 0.2% w/v total adjuvant, Example 3, growth stage 13-15): 66.7%
- Mean control ([1]; nicosulfuron 15 g ai/ha, 0.2% w/v total adjuvant, Example 4, growth stage 15): 76.8%
- Mean control [1, 7]: 80%
- Mean control [1, 8]: 80%
- Mean control ([1]; nicosulfuron 60 g ai/ha, 0.2% w/v total adjuvant, Example 3, growth stage 13-15): 68.3%
- Mean control ([1]; nicosulfuron 60 g ai/ha, 0.2% w/v total adjuvant, Example 4, growth stage 15): 71.7%
- Mean control [4, 14]: 63.3%
- Mean control [4, 15]: 80%
- Mean control [4, 16]: 63.3%
- Mean control [4, 17]: 72.5%

- Cloud point [2, 9]: 52.0 °C
- De-gelling temperature [3, 10]: 5.0 °C
- De-gelling temperature [3, 11]: 5.0 °C
- De-gelling temperature [3, 12]: 5.0 °C
- De-gelling temperature [3, 13]: 16.7 °C
Molecule: Oleyl 20EO n-hexyl ether
- Mean control [1, 5]: 85%
- Mean control [1, 6]: 81.7%
- Mean control [1, 7]: 85%
- Mean control [1, 8]: 88.3%
- Mean control [4, 14]: 70%
- Mean control [4, 15]: 80%
- Mean control [4, 16]: 73.3%
- Mean control [4, 17]: 72.5%
